Experimental data from US20220096535A1, “COMBINATION DRUG THERAPIES OF PDE-5 INHIBITORS AND INHALED NITRIC OXIDE” (BELLEROPHON THERAPEUTICS, priority 2019, published 2022).

Test: Drug-drug interaction study between pulsed, inhaled nitric oxide and sildenafil in healthy volunteers
Description: Inhaled Nitric Oxide (iNO) has been approved for use in infants with hypoxic respiratory failure. Nitric oxide is a selective pulmonary vasodilator, whose action is mediated by the cyclic guanosine monophosphate (cGMP) pathway. […] The objective of this study is to investigate the potential pharmacodynamic interaction between pulsed iNO and sildenafil in healthy volunteers.
Five healthy volunteers received sildenafil for 24 hours prior to the addition of iNO. Changes in pharmacodynamics parameters such as Heart Rate, Blood Pressure, and Oxygen Saturation after dosing with both drugs was assessed for 27 hours and hourly for 4 hours post iNO discontinuation.
FIG. 7 illustrates the protocol design for this study. Briefly, on Day 1, subjects were dosed with sildenafil alone. One dose of 20 mg sildenafil was administered every […] on day 1 for a total of 3 doses on day 1. Vital signs (heart rate, blood pressure, and oxygen saturation) were assessed beginning 1 hour prior to administration of sildenafil and every 30 minutes until 2.5 hours after each dose of sildenafil. Adverse events were also monitored. On days 2-3, the sildenafil regimen was continued as administered on day 1, and supplemented with 27.5 hours of pulsed iNO therapy at 75 mcg/kg individual body weight (IBW)/hr (INOPulse). Vital signs were assessed beginning 1 hour prior to administration of iNO and every 30 minutes until 2.5 hours after each dose of sildenafil. Upon discontinuation of iNO, vital signs were measured hourly for a 4-hour period, and subjects were monitored for syncope and lightheadedness. Nitric oxide metabolites were measured throughout administration of iNO and for 4 hours post-discontinuation of iNO.

Compound | Synergistic interaction (hypotensive drug-drug interaction) between iNO and sildenafil (even at peak levels of metabolites, all volunteers) | Other adverse events (iNO 75 mcg/kg IBW/hr co-administered with 20 mg sildenafil) | Syncope, lightheadedness, or signs of rebound upon discontinuation of iNO (monitored for 4 hours after iNO discontinuation, sildenafil background) | Systolic and diastolic blood pressures during co-administration of iNO, compared to first 3 doses of sildenafil alone (pulsed iNO 75 mcg/kg IBW/hr for 27.5 hours with 20 mg sildenafil, sildenafil doses 4 and 5, and peak nitric oxide metabolites (doses 6 and 7)) | Blood pressure after dosing with sildenafil alone (5 healthy volunteers, 20 mg sildenafil every 6 hours, all 3 doses on day 1, within 2.5 hours after dosing)
[N]=O [iNO, nitric oxide] | No synergistic interaction | no other adverse events were identified | no instances of syncope, lightheadedness, or signs of possible rebound | no further decline | –
CCCc1nn(C)c2c(=O)[nH]c(-c3cc(S(=O)(=O)N4CCN(C)CC4)ccc3OCC)nc12 [sildenafil] | – | – | – | – | drop in blood pressure
